From patent US6890959B2, “Aminomethyl-phenyl-cyclohexanone derivatives” (Gruenenthal GmbH, priority 2000, dated 2005)
Counter-ions that a name gives are not always drawn.

Tested on: Male NMRI mice
Experiment: phenylquinone-induced writhing test in mice
Type: in vivo
Conditions: 10 mg/kg i.v.; phenylquinone i.p. 10 minutes after compound; writhing counted 5-20 minutes after phenylquinone
Experimental: The antinociceptive activity of the compounds according to the invention was investigated in mice in a phenylquinone-induced writhing test, as modified by I. C. Hendershot, J. Forsaith, J. Pharmacol. Exp. Ther. 125, 237-240 (1959). Male NMRI mice weighing 25-30 g were used. Groups of 10 animals per substance dose received 0.3 ml/mouse of a 0.02% aqueous solution of phenylquinone (phenylbenzoquinone, Sigma, Deisenhofen; preparation of the solution with the addition of 5% ethanol and storage in a water bath at 45° C.) administered intraperitoneally 10 minutes after intravenous administration of a compound according to the invention. The animals were placed individually in observation cages. The number of pain-induced stretching movements (so-called writhing reactions, i.e. straightening of the body with stretching of the hind extremities) was counted by means of a push-button counter for 5-20 minutes after the administration of phenylquinone. Animals which received physiological saline solution i.v. and […]. were also used as a control.
All substances were tested in a standard dose of 10 mg/kg. The percentage inhibition (% inhibition) of the writhing reactions by a substance was calculated according to the following equation: % inhibition=100−[WR treated animals/WR control×100]

## COc1cccc(C2CC(=O)CCC2CN(C)C)c1 (racemic) [Compound 2, rac-cis-[4-Dimethylaminomethyl-3-(3-methoxy-phenyl)-cyclohexanone]hydrochloride]
  % inhibition of the writhing reactions: 96%

## rac-cis-[4-Dimethylaminomethyl-3-(3-hydroxy-phenyl)-cyclohexanone [Compound 4]
  % inhibition of the writhing reactions: 100%

## rac-trans-[4-dimethylaminomethyl-3-(3-methoxy-phenyl)-cyclohexanone]hydrochloride [Compound 3]
  % inhibition of the writhing reactions: 92%
